Laboratory results taken from patent publication US11753373B2, “Protease inhibitors as antivirals” (priority 2021, dated 2023).
Read-outs that look alike come from different tables or passages of the source.

Tests used:
[1] = molecular target: SARS-CoV-2 M^pro (3CL protease) (Severe acute respiratory syndrome coronavirus 2 (2019-nCoV) (SARS-CoV-2), UniProt P0DTD1); format: biochemical; settings: read-out: SARS-CoV-2M^pro inhibition IC50
SARS-CoV-2 = experiment: Anti-viral in vitro PRNT assay in Vero E6 cells; format: cell-based; settings: Vero E6 cells, 1000 pfu, 3 days, plaque reduction; for EC50: read-out: anti-SARS-CoV2 (PRNT) in Vero E6 EC50
[2] = format: in vitro ADME, Human; settings: extraction ratio; for Liver Microsomal Stability (ER) Human: compound at 1 uM, human liver microsomes 0.5 mg/mL
[3] = format: in vitro ADME; settings: extraction ratio, compound at 1 uM; for Liver Microsomal Stability (ER) SD rat: SD rat liver microsomes 0.5 mg/mL; for Liver Microsomal Stability (ER) Beagle dog: beagle dog liver microsomes 0.5 mg/mL; for Liver Microsomal Stability (ER) Monkey: monkey liver microsomes 0.5 mg/mL; for Liver Microsomal Stability (ER) Mouse: mouse liver microsomes 0.5 mg/mL
in vivo = settings: female, Balb/c, mouse, po, 40 mg/kg
Procedure: (§1) Pharmacokinetics of test compounds was evaluated following an oral administration of a single dose (at 40 mg/kg) to female Balb/c mice.
(§2) Procedure: Test compounds were administered to Balb/c mice (n=3 per sex per time point) by a single oral gavage. The target dose level for oral administration was 40 mg/kg. Blood samples were collected at pre-dose, and at 0.083, 0.25, 0.50, 1, 2, 4, 6, 8, and 12 hours post-dose. Concentrations of test compound were determined by an LC-MS/MS. Non-compartmental Pharmacokinetic parameters of test compounds were analyzed using Phoenix WinNonlin 8.3.
(§3) Animal Dosing: All animals were fasted overnight through approximately 4 hours post-dose. Tap water was provided to mice ad Libitum. The mice were dosed orally at 10.0 ml/kg. The formulation volume of the test compound administered to each animal was calculated based on the body weight measured on the day of dosing.
(§4) Sample Collection and Analysis: Approximately 0.20 mL of blood was collected via orbital sinus vein puncture into EDTA-K2 tubes. Plasma samples were harvested by centrifugation and stored at −80° C. until analysis. The analytical method for test compound involved protein precipitation by adding acetonitrile containing 1% FA and internal standard (A-1-a synthesized in house or Tolbutamide purchased from Sigma), and final analysis by LC-MS/MS. A standard curve was prepared using mouse plasma for the test compound. The calibration curve was linear over a concentration range of 1.0 to 1000 ng/mL.
(§5) Pharmacokinetic and Statistic Analysis: The reported plasma concentrations of test compounds were used to determine pharmacokinetic parameters, using a non-compartmental model for data analysis (Phoenix WinNonlin 8.3). The common pharmacokinetic parameters were calculated, whenever possible, from the plasma concentration-versus-time data. Nominal doses and sampling times were used, except where deviations were noted. […] BQL after Tmax would not participate in calculation of PK parameters.

[4] = mouse oral PK, female Balb/c, 40 mg/kg single dose; for AUC0-t / Cmax / Tmax / t1/2: plasma
Procedure: as §1, §2, §3, §4, §5

[5] = Severe acute respiratory syndrome coronavirus 2, Vero C1008, 72 h
[6] = wild type Mpro 17 nM, substrate 40 uM

SMILES | IC50 [1] [nM] | EC50 (SARS-CoV-2; [5]) [nM] | Liver Microsomal Stability (ER) Human [2] | Liver Microsomal Stability (ER) SD rat [3] | Liver Microsomal Stability (ER) Beagle dog [3] | Liver Microsomal Stability (ER) Monkey [3] | Liver Microsomal Stability (ER) Mouse [3] | IC50 [1, 6] [nM] | anti-SARS-CoV2 (PRNT) in Vero E6 EC50 (μM) (SARS-CoV-2) | AUC0-t (in vivo) [ng·h/mL] | Cmax (in vivo) [ng/mL] | Tmax (in vivo) [h] | half-life (in vivo) [h] | EC50 (SARS-CoV-2) [nM] | AUC0-t [4] [ng·h/mL] | Cmax [4] [ng/mL] | Tmax [4] [h] | t1/2 [4] [h] | F % (bioavailability) [4] [%] | Liver Microsomal Stability (ER) Human, at 0.1 uM ([2]; compound at 0.1 uM, human liver microsomes)
CC(C)C[C@H](NC(=O)c1cc2ccccc2[nH]1)C(=O)N[C@@H](C[C@@H]1CCNC1=O)C(=O)CCl [Compound A-1-g, (2S)—N-[(2S)-4-chloro-3-oxo-1-[(3S)-2-oxopyrrolidin-3-yl]butan-2-yl]-2-[(1H-indol-2-yl)formamido]-4-methylpentanamide] | 47 | 18200 | 0.80 | 0.77 | 0.71 | 0.68 | 0.53 |  |  |  |  |  |  |  |  |  |  |  |  | 
CC(C)C[C@H](NC(=O)c1cc2ccccc2[nH]1)C(=O)N[C@@H](C[C@@H]1CCNC1=O)C(=O)CO [Compound A-1-h] |  |  | 0.07 | 0.13 | 0.03 |  | 0.23 | 10.2 | Inactive |  |  |  |  |  |  |  |  |  |  | 
CC(C)C[C@H](NC(=O)c1cc2c(F)cccc2[nH]1)C(=O)N[C@H](C#N)C[C@@H]1CCNC1=O [Compound A-3-a, (2S)—N-[(1S)-1-cyano-2-[(3S)-2-oxopyrrolidin-3-yl]ethyl]-2-[(4-fluoro-1H-indol-2-yl)-formamido]-4-methylpentanamide] |  | 5180 | 0.02 | 0.21 | 0.03 | 0.27 | 0.07 |  |  | 15500 | 8050 | 1 | 0.976 |  |  |  |  |  |  | 
CC(C)C[C@H](NC(=O)c1cc2c(F)cccc2[nH]1)C(=O)N[C@@H](C[C@@H]1CCNC1=O)C(=O)CO [Compound A-3-e, (2S)-2-[(4-fluoro-1H-indol-2-yl)formamido]-N-[(2S)-4-hydroxy-3-oxo-1-[(3S)-2-oxopyrrolidin-3-yl]butan-2-yl]-4-methylpentanamide] | 5.11 |  | 0.11 | 0.17 | 0.05 |  | 0.23 |  |  | 261 | 131 | 0.25 | 1.25 |  |  |  |  |  |  | 
Cc1cccc2[nH]c(C(=O)N[C@@H](CC(C)C)C(=O)N[C@H](C=O)C[C@@H]3CCNC3=O)cc12 [Compound A-4-a, 4-methyl-N—((S)-4-methyl-1-oxo-1-(((S)-1-oxo-3-((S)-2-oxopyrrolidin-3-yl)propan-2-yl)amino)pentan-2-yl)-1H-indole-2-carboxamide] | 2.39 | 1130 | 0.21 | 0.06 | 0.22 | 0.098 | 0.13 |  |  |  |  |  | 1 |  |  |  |  |  |  | 
Cc1cccc2[nH]c(C(=O)N[C@@H](CC(C)C)C(=O)N[C@@H](C[C@@H]3CCNC3=O)C(=O)CO)cc12 [Compound A-4-d] |  |  | 0.18 | 0.19 | 0.08 |  | 0.44 | 4.13 |  |  |  |  |  | 2060 | 120 | 52 | 4 | 2.14 |  | 
CC(C)C[C@H](CC(=O)[C@@H](NC(=O)OCc1ccccc1)[C@@H](C)OC(C)(C)C)C(=O)N[C@H](C=O)C[C@@H]1CCNC1=O [Compound C-1-b] |  |  | 0.66 | 0.23 | 0.48 | 0.51 | 0.45 | 1.3 |  |  |  |  |  | 1020 | 128.4 | 46.1 | 2 | 0.704 | 2.9 | 
CC(C)(C)[C@H](NC(=O)C(F)(F)F)C(=O)N1C[C@H]2[C@@H]([C@H]1C(=O)N[C@H](C=O)C[C@@H]1CCNC1=O)C2(C)C [Compound D-1-f] |  |  | 0.093, | −0.02 | 0.01 | 0.13 | −0.02 | 1.08 |  |  |  |  |  | 7590 | 1402 | 839 | 1 | 1.37 |  | 0.22(0.1 uM)*
CC(C)(C)[C@H](NC(=O)C(F)(F)F)C(=O)N1C[C@H]2[C@@H]([C@H]1C(=O)N[C@H](C#N)C[C@@H]1CCCNC1=O)C2(C)C [Compound D-3-a] |  |  | 0.38 | 0.09 | 0.16 |  | 0.66 | 5.83 |  |  |  |  |  | 1270 | 5590 | 7070 | 0.25 | 0.706 |  | 
CC(C)C[C@H](NC(=O)c1cc2ccccc2[nH]1)C(=O)N1C[C@H]2[C@@H]([C@H]1C(=O)N[C@H](C=O)C[C@@H]1CCNC1=O)C2(C)C [Compound G-1-a] |  |  | 0.28 | 0.16 | 0.09 | 0.33 | 0.00 | 9.57 |  |  |  |  |  | 25100 | 36.1 | 13.3 | 1 | 0.92 |  | 
CC(C)C[C@H](NC(=O)c1cc2ccccc2[nH]1)C(=O)N1C[C@H]2[C@@H]([C@H]1C(=O)N[C@H](C#N)C(C)(C)C)C2(C)C [Compound G-3-b] |  |  | 0.28 | 0.20 | 0.32 |  | 0.55 | > 10000 |  |  |  |  |  |  | 383.7 | 169 | 2 | 0.773 |  | 
CC(C)C[C@H](NC(=O)C(F)F)C(=O)N1C[C@H]2[C@@H]([C@H]1C(=O)N[C@H](C=O)C[C@@H]1CCNC1=O)C2(C)C [Compound H-1-a] |  |  | 0.08 | 0.05 | 0.10 |  | 0.24 | 6.35 | inactive |  |  |  |  |  |  |  |  |  |  | 
CC(C)C[C@H](NC(=O)C(C)(C)C)C(=O)N1C[C@H]2[C@@H]([C@H]1C(=O)N[C@H](C#N)C[C@@H]1CCNC1=O)C2(C)C [Compound H-1-d] |  |  | 0.26 | 0.09 | 0.16 |  | 0.63 | 39.6 | Inactive |  |  |  |  |  |  |  |  |  |  | 
CC(C)C[C@H](NC(=O)C1CC1)C(=O)N1C[C@H]2[C@@H]([C@H]1C(=O)N[C@H](C#N)C[C@@H]1CCNC1=O)C2(C)C [Compound H-1-f] |  |  | 0.03 | 0.04 | 0.01 |  | 0.27 | 28.6 | Inactive |  |  |  |  |  | 72.0 | 32.1 | 1.0 | 1.43 |  | 
CC(C)(C)C(=O)N[C@H](C(=O)N1C[C@H]2[C@@H]([C@H]1C(=O)N[C@H](C#N)C[C@@H]1CCNC1=O)C2(C)C)C(C)(C)C [Compound H-2-a] |  |  | 0.53 | 0.15 | 0.52 |  | 0.83 | 40.7 | Inactive |  |  |  |  |  |  |  |  |  |  | 
CC(C)(C)[C@H](NC(=O)C1CC1)C(=O)N1C[C@H]2[C@@H]([C@H]1C(=O)N[C@H](C#N)C[C@@H]1CCNC1=O)C2(C)C [Compound H-2-c] |  |  | 0.02 | 0.01 | 0.01 |  | 0.32 | 6.1 |  |  |  |  |  | 3360 |  |  |  |  |  | 
CC(C)C[C@H](NC(=O)[C@@H](NC(=O)C(F)F)[C@@H](C)OC(C)(C)C)C(=O)N[C@H](C#N)C[C@@H]1CCNC1=O [Compound H-3-a] |  |  | 0.35 | 0.21 | 0.06 |  | 0.68 | 8.1 |  |  |  |  |  | 2190 |  |  |  |  |  | 
